PMC9097292, “Activity of Estrogen Receptor β Agonists in Therapy-Resistant Estrogen Receptor-Positive Breast Cancer” (Frontiers in Oncology, 2022)

Key:
[1] = target: T1, ERβ (estrogen receptor β) (Homo sapiens, UniProt Q92731); experiment: ERE-luciferase reporter assay in HEK293T cells transfected with Flag-ERβ (agonist); type: cell-based
T1 construct: gene ESR2; c-Flag ERβ (OHu25562D; pcDNA3.1+/C-(K) DYK)

[2] = target: T2, ERα (estrogen receptor α) (Homo sapiens, UniProt P03372); experiment: ERE-luciferase reporter assay in HEK293T cells transfected with Flag-ERα (weaker activation than ERβ); type: cell-based
T2 construct: gene ESR1; c-Flag ERα (OHu26586D; pcDNA3.1+/C-(K) DYK)
T2 sequence (P03372 1-595): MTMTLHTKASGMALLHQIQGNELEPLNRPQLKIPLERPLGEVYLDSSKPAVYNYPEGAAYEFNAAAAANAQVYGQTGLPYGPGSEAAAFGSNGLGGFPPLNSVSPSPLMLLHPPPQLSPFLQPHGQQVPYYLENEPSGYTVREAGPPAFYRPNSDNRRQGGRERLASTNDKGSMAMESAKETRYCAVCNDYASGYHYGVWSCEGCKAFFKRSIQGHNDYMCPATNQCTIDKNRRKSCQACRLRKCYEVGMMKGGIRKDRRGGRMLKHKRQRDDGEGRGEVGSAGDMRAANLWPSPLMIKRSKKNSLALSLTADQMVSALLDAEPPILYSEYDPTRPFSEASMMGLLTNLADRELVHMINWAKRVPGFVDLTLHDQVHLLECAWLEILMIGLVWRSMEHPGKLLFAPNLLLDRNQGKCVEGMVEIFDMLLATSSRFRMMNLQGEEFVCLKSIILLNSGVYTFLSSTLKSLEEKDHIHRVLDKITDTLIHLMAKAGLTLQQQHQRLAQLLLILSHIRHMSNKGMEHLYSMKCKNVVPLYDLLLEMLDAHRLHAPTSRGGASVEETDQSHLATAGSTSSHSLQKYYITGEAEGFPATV

T1 sequence (Q92731 whole entry): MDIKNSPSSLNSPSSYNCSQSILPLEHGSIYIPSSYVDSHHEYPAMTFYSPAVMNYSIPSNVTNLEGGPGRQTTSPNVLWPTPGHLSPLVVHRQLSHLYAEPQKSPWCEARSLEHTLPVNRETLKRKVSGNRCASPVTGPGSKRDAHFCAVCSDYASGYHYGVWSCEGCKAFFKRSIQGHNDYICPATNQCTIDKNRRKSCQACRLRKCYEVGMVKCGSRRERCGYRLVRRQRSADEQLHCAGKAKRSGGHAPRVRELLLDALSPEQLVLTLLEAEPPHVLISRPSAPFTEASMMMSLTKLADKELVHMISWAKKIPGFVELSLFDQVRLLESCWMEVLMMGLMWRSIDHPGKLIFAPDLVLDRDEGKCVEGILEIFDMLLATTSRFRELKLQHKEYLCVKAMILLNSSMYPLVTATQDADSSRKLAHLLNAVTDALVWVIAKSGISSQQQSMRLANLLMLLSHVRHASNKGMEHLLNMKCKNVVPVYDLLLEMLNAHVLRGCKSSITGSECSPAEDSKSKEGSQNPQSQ

Row | fold induction at 0.01 µM ([1]; HEK-293T, read-out: ERE-luciferase reporter assay in HEK293T cells transfected with Flag-ERβ (agonis)) | fold induction at 0.01 µM ([2]; HEK-293T) | Compound | ERE-luciferase reporter assay in HEK293T cells transfected with Flag-ERβ (agonis) ([1]; hek293t cells, 0.03 µM) | ERE-luciferase reporter assay in HEK293T cells transfected with Flag-ERα (weaker) ([2]; hek293t cells, 0.03 µM)
1 | – | – | OSU-ERb-12 | ~ 40 fold activation at 30 nmol/l | ~ 4 fold activation at 30 nmol/l
2 | 84 | 2.1 | Oc1ccc([C@@H]2Oc3ccc(O)cc3[C@@H]3CCC[C@@H]32)cc1 [LY500307] | – | –
